Laboratory results taken from PubChem BioAssay AID1918933 (Molecular Pharmacology Branch, DTP, NCI, 2023).

System: 186277-243-T-J2-PDC complex spheroid viability
Test: Anticancer human tumor 186277-243-T-J2-PDC patient-derived colon adenocarcinoma cell line growth inhibition
Conditions: for IC50: curve of first compound; for viability, T/C: stronger effect = lower value
Outline: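 Complex spheroids of tumor cells with HUVEC and human MSCs, exposed to iadademstat combined with other agents. Each agent tested in half-log steps from near clinical Cmax (else 10 microM top), DMSO ≤0.25%.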

[1] = second compound 0.1 µM, first compound 0.0316 µM
[2] = second compound 0.1 µM, first compound 0.1 µM
[3] = second compound 0.1 µM, first compound 0.316 µM
[4] = second compound 0.1 µM, first compound 1 µM
[5] = second compound 0.1 µM, first compound 3.16 µM
[6] = second compound 0.1 µM, first compound 10 µM
[7] = second compound 0.316 µM, first compound 0.0316 µM
[8] = second compound 0.316 µM, first compound 0.1 µM
[9] = second compound 0.316 µM, first compound 0.316 µM
[10] = second compound 0.316 µM, first compound 1 µM
[11] = second compound 0.316 µM, first compound 3.16 µM
[12] = second compound 0.316 µM, first compound 10 µM
[13] = second compound 1 µM, first compound 0.0316 µM
[14] = second compound 1 µM, first compound 0.1 µM
[15] = second compound 1 µM, first compound 0.316 µM
[16] = second compound 1 µM, first compound 1 µM
[17] = second compound 1 µM, first compound 3.16 µM
[18] = second compound 1 µM, first compound 10 µM
[19] = second compound 3.16 µM, first compound 0.0316 µM
[20] = second compound 3.16 µM, first compound 0.1 µM
[21] = second compound 3.16 µM, first compound 0.316 µM
[22] = second compound 3.16 µM, first compound 1 µM
[23] = second compound 3.16 µM, first compound 3.16 µM
[24] = second compound 3.16 µM, first compound 10 µM
[25] = second compound 10 µM, first compound 0.0316 µM
[26] = second compound 10 µM, first compound 0.1 µM
[27] = second compound 10 µM, first compound 0.316 µM
[28] = second compound 10 µM, first compound 1 µM
[29] = second compound 10 µM, first compound 3.16 µM
[30] = second compound 10 µM, first compound 10 µM
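Note: 7 day exposure to compounds.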
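Throughout, for viability, T/C: 100% = DMSO vehicle control viability.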

| SMILES | IC50 (second compound 0.1 µM) [µM] | IC50 (second compound 0.316 µM) [µM] | IC50 (second compound 1 µM) [µM] | IC50 (second compound 3.16 µM) [µM] | IC50 (second compound 10 µM) [µM] | viability, T/C [1] [%] | viability, T/C [2] [%] | viability, T/C [3] [%] | viability, T/C [4] [%] | viability, T/C [7] [%] | viability, T/C [8] [%] | viability, T/C [9] [%] | viability, T/C [10] [%] | viability, T/C [13] [%] | viability, T/C [14] [%] | viability, T/C [15] [%] | viability, T/C [16] [%] | viability, T/C [19] [%] | viability, T/C [20] [%] | viability, T/C [21] [%] | also measured |
| --- | --- | --- | --- | --- | --- | --- | --- | --- | --- | --- | --- | --- | --- | --- | --- | --- | --- | --- | --- | --- | --- |
| CC(C)c1c(-c2ccccc2)nc2c(C#N)c[nH]n2c1=O + NC1CCC(NC2CC2c2ccccc2)CC1 | > 10 | > 10 | > 10 | > 10 | > 10 | 112 | 118 | 114 | 105 | 108 | 125 | 115 | 115 | 110 | 110 | 108 | 112 | 112 | 119 | 112 | viability, T/C [5]: 114%; viability, T/C [6]: 103%; viability, T/C [11]: 108%; viability, T/C [12]: 96.8%; viability, T/C [17]: 109%; viability, T/C [18]: 106%; viability, T/C [22]: 121%; viability, T/C [23]: 107%; viability, T/C [24]: 105%; viability, T/C [25]: 104%; viability, T/C [26]: 101%; viability, T/C [27]: 107%; viability, T/C [28]: 110%; viability, T/C [29]: 101%; viability, T/C [30]: 90.5% |
| CC1COCCN1c1cc(-c2ccnn2C)c2ccnc(-c3ccn[nH]3)c2n1 (stereo not given) + NC1CCC(NC2CC2c2ccccc2)CC1 | 0.00656 | 0.00604 | 0.00563 | 0.00634 | 0.00591 | 10.9 | 9.28 | 10 | 11.5 | 10.2 | 8.48 | 9.85 | 11.8 | 11.1 | 8.48 | 9.78 | 12.1 | 10.4 | 8.64 | 9.76 | viability, T/C (second compound 0.1 µM, first compound 0.00316 µM): 84.2%; viability, T/C (second compound 0.1 µM, first compound 0.01 µM): 30.2%; viability, T/C (second compound 0.316 µM, first compound 0.00316 µM): 74.5%; viability, T/C (second compound 0.316 µM, first compound 0.01 µM): 30.9%; viability, T/C (second compound 1 µM, first compound 0.00316 µM): 69.3%; viability, T/C (second compound 1 µM, first compound 0.01 µM): 30.8%; viability, T/C (second compound 3.16 µM, first compound 0.00316 µM): 79.9%; viability, T/C (second compound 3.16 µM, first compound 0.01 µM): 30.4%; viability, T/C [22]: 12%; viability, T/C (second compound 10 µM, first compound 0.00316 µM): 71.8%; viability, T/C (second compound 10 µM, first compound 0.01 µM): 31.6%; viability, T/C [25]: 11%; viability, T/C [26]: 9.23%; viability, T/C [27]: 9.95%; viability, T/C [28]: 11.8% |
| COc1ccc([C@@H](O)c2cc(-c3ncnc4cc(N5CCOCC5)ccc34)c(F)cc2Cl)nn1 + NC1CCC(NC2CC2c2ccccc2)CC1 | 4.32 | 4.43 | 4.48 | 4.3 | 3.86 | 112 | 119 | 112 | 93.2 | 128 | 143 | 105 | 100 | 116 | 118 | 108 | 109 | 122 | 126 | 122 | viability, T/C [5]: 67.3%; viability, T/C [6]: 7%; viability, T/C [11]: 72.7%; viability, T/C [12]: 5.45%; viability, T/C [17]: 68.7%; viability, T/C [18]: 6.38%; viability, T/C [22]: 97.9%; viability, T/C [23]: 67.5%; viability, T/C [24]: 5.71%; viability, T/C [25]: 109%; viability, T/C [26]: 118%; viability, T/C [27]: 104%; viability, T/C [28]: 101%; viability, T/C [29]: 59%; viability, T/C [30]: 5.79% |
